Assay results reported in US20230242496A1, “SOX11 INHIBITORS FOR TREATING MANTLE CELL LYMPHOMA” (Icahn School of Medicine At Mount Sinai, priority 2020, published 2023).

Columns and labels:
(His)6-SOX11-DBD protein = biological target: T1, (His)6-SOX11-DBD protein (Homo sapiens, UniProt P35716); assay: Surface Plasmon Resonance (SPR) assay; format: binding; settings: immobilized recombinant (His)6-SOX11-DBD, 25° C., compounds 5-40 μM, mean of three experiments
T1 construct: Recombinant (His)6-SOX11-DBD protein was immobilized
T1 sequence (P35716 49-117 limits assumed): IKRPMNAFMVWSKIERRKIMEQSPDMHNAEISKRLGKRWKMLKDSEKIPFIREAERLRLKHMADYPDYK
Experimental: Surface Plasmon Resonance (SPR) Assay
Recombinant (His)6-SOX11-DBD protein was immobilized at a flow rate of 10 μl/min for 180 seconds to the right channel of a gold-coated SCR NiHC200M sensor chip (XanTec bioanalytics) placed in a Reichert 2SPR instrument (Reichert Technologies). The left channel, without immobilized protein, was used as a reference. […] Compounds flowed sequentially from the left to the right channel over the prepared sensor chip surface. 120 seconds association phase with each compound concentration was followed by 300 seconds dissociation phase with the assay buffer alone. The ka, kd, and KD values were determined from the sensograms for at least 3 concentrations of each compound by curve fitting the data using Reichert's TraceDrawer software. The mean KD value for each compound was calculated from three separate experiments.

Jeko-1 (SOX11+) = assay: Cell viability assay (CellTiter-Blue resazurin reduction); format: cell-based; settings: Homo sapiens, JeKo-1, 72 h, JeKo-1 cells; for IC50: 0-40 μM; for viability at 20 µM: 20 μM compound, normalized to 0.2% DMSO
Experimental: Cell viability was determined by a fluorometric resazurin reduction method (CellTiter-Blue; Promega, Madison, Wis.) following the manufacturer's instructions. […] Cells were incubated for 72 hours. After incubation, 20 μl CellTiter-Blue Cell was added to each well and incubated for another 2 hours. […] The number of viable cells in each treated well was calculated, based on the linear least squares regression of the standard curve (OD vs. cell concentration). The viability of cells treated with compounds was normalized to the viability of cells treated with 0.2% Dimethyl sulfoxide (DMSO). Cell counts were confirmed with Trypan Blue Exclusion Assay on the Countess automated cell counter (Invitrogen) according to the manufacturer's specifications. The average and mean standard deviation were calculated from three separate experiments. IC50 values were calculated using the GraphPad Prism (version 4.00) based on a sigmoidal dose-response equation.

Compound	Kd ((His)6-SOX11-DBD protein) [µM]	IC50 (Jeko-1 (SOX11+)) [µM]	viability at 20 µM (Jeko-1 (SOX11+)) [%]
O=C1COc2ccc(C(=O)Nc3ccc(S(=O)(=O)Nc4ccccc4)cc3)cc2N1	17.9	> 20	61.1
Nc1cc(C(=O)Nc2ccc(S(=O)(=O)Nc3ccccc3)cc2)ccc1/C=C\C(=O)O	2.22	9	12.4
O=C(Nc1ccc(S(=O)(=O)Nc2ccccc2)cc1)c1ccc2ccccc2c1	3.42	> 20	96.3
CC(C)C1Sc2ccc(C(=O)Nc3ccc(S(=O)(=O)Nc4ccccc4)cc3)cc2NC1=O (stereo not drawn)	1.18	2.5	1.01
O=C(Nc1ccc(S(=O)(=O)Nc2ccccc2)cc1)c1ccc2c(c1)CCCS2	1.62	12	1.95
O=C1Cc2ccc(C(=O)Nc3ccc(S(=O)(=O)Nc4ccccc4)cc3)cc2N1	20.9	> 20	81.5
O=C(Nc1ccc(S(=O)(=O)Nc2ccccc2)cc1)c1ccc2oc(=O)[nH]c2c1	8.68	20	51.8
O=C(Nc1ccc(S(=O)(=O)Nc2ccccc2)cc1)c1ccc2snnc2c1	5.65	5 to 10	34.3
O=C(Nc1ccc(S(=O)(=O)Nc2ccccc2)cc1)c1ccc2ccncc2c1	37.9	5	24.8
O=C(Nc1ccc(S(=O)(=O)Nc2ccccc2)cc1)c1ccc2[nH]ncc2c1	78.5	20	47.6
CC1Sc2ccc(C(=O)N(c3ccccc3)S(=O)(=O)c3ccc(N)cc3)cc2NC1=O (stereo not drawn)	7.75	> 20	91.2
CC1Sc2ccc(C(=O)Nc3ccc(S(=O)(=O)Nc4cc[nH]c(=O)c4)cc3)cc2NC1=O (stereo not drawn)	24.8	18	34.8
CC1Sc2ccc(C(=O)Nc3ccc(S(=O)(=O)NC4CCNCC4)cc3)cc2NC1=O (stereo not drawn)	100	> 20	80.7
CC1Sc2ccc(C(=O)Nc3ccc(S(=O)(=O)N4CCNCC4)cc3)cc2NC1=O (stereo not drawn)	17.5	> 20	92.4
CC1Sc2ccc(C(=O)Nc3ccc(S(=O)(=O)Nc4ccc(O)cc4)cc3)cc2NC1=O (stereo not drawn)	32	< 20	13.7
CC1Sc2ccc(C(=O)Nc3ccc(S(=O)(=O)Nc4ccc(N)cc4)cc3)cc2NC1=O (stereo not drawn)	19.6	> 20	88
CC1Sc2ccc(C(=O)Nc3ccc(S(=O)(=O)Nc4ccc(C(F)(F)F)cc4)cc3)cc2NC1=O (stereo not drawn)	1.57	> 20	63.6
CC1Sc2ccc(C(=O)Nc3ccc(S(=O)(=O)Nc4ccccc4)cc3)cc2N(C)C1=O (stereo not drawn)	1.95	8	1.23
CC1Sc2ccc(C(=O)Nc3ccc(S(=O)(=O)NC4CCCCC4)cc3)cc2NC1=O (stereo not drawn)	19	8	30.4
CC1Sc2ccc(C(=O)Nc3ccc(S(=O)(=O)NC4CCCC4)cc3)cc2NC1=O (stereo not drawn)	13.4	15	36.3
CC1Sc2ccc(C(=O)Nc3ccc(S(=O)(=O)Nc4ccncc4)cc3)cc2NC1=O (stereo not drawn)	30.9	> 20	103
CC1Sc2ccc(C(=O)Nc3ccc(S(=O)(=O)Nc4ccncn4)cc3)cc2NC1=O (stereo not drawn)	5.51	> 20	106
CC1Sc2ccc(C(=O)Nc3cccc(S(=O)(=O)NC4CCCC4)c3)cc2NC1=O (stereo not drawn)	15.4	16	38.5
O=C1CSc2ccc(C(=O)Nc3cccc(S(=O)(=O)N4CCCC4)c3)cc2N1	38.6	20	45.4

Compound	Kd ((His)6-SOX11-DBD protein) [µM]	IC50 (Jeko-1 (SOX11+)) [µM]	viability at 20 µM (Jeko-1 (SOX11+)) [%]
CC1Sc2ccc(C(=O)Nc3ccc(S(=O)(=O)Nc4ccccc4C(F)(F)F)cc3)cc2NC1=O (stereo not drawn)	1.1	10	8.61
Cc1ccc(NC(=O)c2ccc3c(c2)NC(=O)CS3)cc1S(=O)(=O)Nc1cccc(Cl)c1	3.37	10	26.3
CC1Sc2ccc(C(=O)Nc3ccccc3S(=O)(=O)Nc3ccccc3)cc2NC1=O (stereo not drawn)	29.2	< 20	14.2
CC1Sc2ccc(C(=O)Nc3cccc(S(=O)(=O)N4CCOCC4)c3)cc2NC1=O (stereo not drawn)	85	8	30.8
CC1Sc2ccc(C(=O)Nc3cccc(S(=O)(=O)N(C)C(C)C)c3)cc2NC1=O (stereo not drawn)	65.9	6	9.64
CC(C)NS(=O)(=O)c1cccc(NC(=O)c2ccc3c(c2)NC(=O)C(C)S3)c1 (stereo not drawn)	90.9	8	17.6
CC1Sc2ccc(C(=O)Nc3cccc(S(=O)(=O)Nc4cccc(F)c4)c3)cc2NC1=O (stereo not drawn)	0.629	10	13.1
CC1Sc2ccc(C(=O)Nc3cccc(S(=O)(=O)Nc4ccc(Cl)cc4)c3)cc2NC1=O (stereo not drawn)	4.24	11.5	10.4
CC1Sc2ccc(C(=O)ONc3ccc(S(=O)(=O)Nc4ccccc4)nc3)cc2NC1=O (stereo not drawn)	5.07	> 20	90
CC1Sc2ccc(C(=O)Nc3ccc(S(=O)(=O)Nc4ccccc4)cc3F)cc2NC1=O (stereo not drawn)	31	> 20	90
CC1Sc2ccc(C(=O)Nc3ccc(S(=O)(=O)Nc4ccccc4)s3)cc2NC1=O (stereo not drawn)	6.63	> 20	57.4
CC1Sc2ccc(C(=O)Nc3ccc(C(=O)Nc4ccccc4)cc3)cc2NC1=O (stereo not drawn)	13.7	> 20	97.5
CC1Sc2ccc(NC(=O)c3ccc(S(=O)(=O)Nc4ccccc4)cc3)cc2NC1=O (stereo not drawn)	33.2	9	33.5
CC1Sc2ccc(NC(=O)c3ccc(S(=O)(=O)Nc4ccccc4)c(F)c3)cc2NC1=O (stereo not drawn)	16.1	> 20	75.8
CC1Sc2ccc(C(=O)Nc3ccc(S(=O)(=O)N(C)c4ccccc4)cc3)cc2NC1=O (stereo not drawn)	1.47	9	18
CC1Sc2ccc(C(=O)Nc3cccc(S(=O)(=O)Nc4ccc(F)cc4)c3)cc2NC1=O (stereo not drawn)	8.48	> 20	55.6
CC1Sc2ccc(C(=O)Nc3cccc(S(=O)(=O)Nc4ccc(C(F)(F)F)cc4)c3)cc2NC1=O (stereo not drawn)	2.12	< 20	22.2
Cc1ccc(NS(=O)(=O)c2cccc(NC(=O)c3ccc4c(c3)NC(=O)C(C)S4)c2)cc1 (stereo not drawn)	6.08	7	2.16
CC1Sc2ccc(C(=O)Nc3cccc(S(=O)(=O)NC4CC4)c3)cc2NC1=O (stereo not drawn)	96.9	4	11.9
Cc1ccccc1NS(=O)(=O)c1cccc(NC(=O)c2ccc3c(c2)NC(=O)C(C)S3)c1 (stereo not drawn)	7.42	6	6.11
CN(Cc1ccc(NC(=O)c2ccc3oc(=O)[nH]c3c2)cc1)c1ccccc1	15.6		
O=C(Nc1ccc(S(=O)(=O)N2CCCCC2)cc1)c1ccc2c(c1)N(c1ccccc1)C(=O)CS2	6.67		
FC(F)(F)c1cc(OCc2ccccc2)ccc1CNc1ccc2cncnc2c1	5.28		
